Assay [1] has as its system ITK phosphorylation of its substrate, PLCγ1, at Y783. In words: ITK target modulation assay (PLCγ1 Y783 phosphorylation, anti-CD3 stimulated Jurkat T cells). The class given is cell-based. Particulars: Homo sapiens, Jurkat, anti-CD3 Dynabeads stimulation, read-out: PLC-γ Inh. IC50. As for the experimental part: Target modulation was based upon the ability of a compound to inhibit ITK phosphorylation of its substrate, PLCγ1, at Y783. Human Jurkat T cells (ATCC TIB-152) were plated in V-bottom 96 well plates at 400,000 cells/well in 80 μL medium (RPMI1640 with 10% heat inactivated serum and 55 μM 2-mercaptoethanol and supplemented with glutamine/penicillin/streptomycin). Compounds were added as 10 μL of 10× working stock solutions in medium with 1% DMSO (or medium with 1% DMSO for controls) and placed in a 37° C. incubator with gentle shaking for 1 hour. Stimulation was carried out using anti-CD3 Dynabeads (Invitrogen catalog #1151D) to activate the T cell receptor and mimic antigen presenting cells. Beads were washed and resuspended in medium at 1.84×10^8 beads/ml. Beads were added rapidly to all compound containing and stimulation only wells at 10 μL/well (bead:cell=2:1) with gentle mixing of the bead source between each addition. Wells designated ‘unstimulated’ received 10 μL of media only. The plate was immediately sealed with a plate seal and cells pelleted at 400× g for 4 minutes. Media was removed using a multichannel aspirator, 25 μL of cold hypotonic lysis buffer (VWR M334-100 ml) plus 1×HALT Protease Inhibitor Cocktail (ThermoFisher #78437), 1× Phosphatase Inhibitor Cocktail 2 (Sigma Aldrich #P5726), 1× Phosphatase Inhibitor Cocktail 3 (Sigma Aldrich #P0044) and 2 mM PMSF was added per well. Cells were incubated on ice for 30 minutes to swell the cells then lysed by pipetting 20 times using a multichannel pipet. The plates were then resealed and centrifuged for 5 minutes at 400× g to pellet the cellular debris. Two μL of the soluble component of each sample was spotted onto nitrocellulose and allowed to dry for 30 minutes. Nitrocellulose was wet in 1× Tris Buffer Saline (20 mM Tris pH7.5, 150 mM NaCl) then blocked in LiCOR Odyssey Blocking Buffer (TBS) (LiCOR #927-50000) for 1 hour at room temperature with rocking. Following blocking, nitrocellulose was incubated in LiCOR Odyssey Blocking Buffer (TBS) plus 0.2% Tween20 plus anti-phospho-PLCγ1 (Y783) antibody (CST #2821S) at 1:1000 and anti-PLCγ1 (Abcam #41433) at 1:5000 with gentle rocking overnight at 4° C. Nitrocellulose was then washed four times for 5 minutes each with TBS plus 0.1% Tween20 (TBST) then incubated in LiCOR Odyssey Blocking Buffer (TBS) plus 0.2% Tween20 plus secondary antibodies IRDye 800CW (LiCOR 926-32211) and IRDye 680RD (LiCOR 926-68070) both at 1:15,000 with gentle rocking at room temperature in the dark for 1 hour. Nitrocellulose was then washed four times for 5 minutes each with TBST at room temperature in the dark. A final rinse with TBS was done prior to imaging and quantifying using the LiCOR Odyssey Imager and software respectively.

For assay [2], the target named is ITK (Homo sapiens (Human), UniProt Q08881). Nature of the assay: ITK inhibitor binding potency (LanthaScreen competitive binding assay). Particulars: read-out: ITK Inh. IC50. An excerpt:
The ability of candidate compounds to interact with ITK is quantitated by a competitive binding assay using the LanthaScreen technology developed by Life Technologies. This assay is based on the binding of a proprietary, Alexa Fluor® 647-labeled, ATP-competitive kinase inhibitor (kinase tracer-236) to the ITK expression construct in the presence of a Europium-conjugated antibody, resulting in a FRET (fluorescence resonance energy transfer) signal. Displacement of the kinase tracer by compound results in a lower emission ratio upon excitation of the Europium chelate. Candidate compounds are designed as potential irreversible inhibitors of ITK, capable of ligating to an active site cysteine residue resulting in time dependent covalent binding. The time dependent nature of irreversible inhibition is investigated by performing the binding assay with and without a pre-incubation of compound and ITK. […] The inhibitory potency of candidate compounds is measured in 20 mM HEPES pH 7.5, 10 mM MgCl2, 0.01% BSA, 0.0005% Tween-20, and 2% DMSO in the presence of 10 nM ITK, 2 nM Eu-anti-GST antibody, and 50 nM kinase tracer-236 using a 384-well plate format. Background signal is defined in the absence of ITK and uninhibited signal is defined in the presence of vehicle (2% DMSO) alone. Compounds were evaluated in an 11 point dose-response ranging from 20 uM to 0.34 nM. The binding assays are performed under two preincubation conditions to evaluate time dependence of inhibition. For the pre-incubation assay, ITK and Eu-anti-GST antibody are pre-incubated with compound or vehicle for two hours prior to the addition of kinase tracer. The non-preincubated assay is run under conditions where ITK and Eu-anti-GST antibody are added to a mixture of compound and kinase tracer. IC50 values of compounds are determined using a 4 parameter logistical fit of emission ratio as a function of the concentration of compound.
Background: In TR-FRET formats the signal depends on donor and acceptor labels being close together.

Assay [3] deals with JAK3 (Homo sapiens (Human), UniProt P52333). Nature of the assay: JAK3 enzyme activity assay (Caliper mobility shift). It counts as biochemical. As to conditions: ATP at Km level; read-out: JAK3 Inh. IC50. An excerpt: The ability of candidate compounds to interact with JAK3 is quantitated by a mobility shift assay using an LC3000 instrument developed by Caliper Life Sciences. This assay is based on mobility shift electrophoresis, in which fluorescently labelled product and fluorescently labelled substrate peaks are separated and detected independently. JAK3 product/substrate separation is obtained using the following instrument settings: Pressure=−1.4 psi, Downstream voltage=−2550V and Upstream voltage=−800V. The inhibitory potency of candidate compounds of JAK3 is measured in 20 mM HEPES pH 7.5, 10 mM MgCl2, 0.01% BSA, 0.0005% Tween-20, and 2% DMSO in the presence of 2.5 nM JAK3 (Life Technologies Catalog #PV3855), […] (Anaspec Catalog #AS-64106) and […] (Km level) using a 384-well plate format. Background signal is defined in the absence of enzyme and uninhibited signal is defined in the presence of vehicle (2% DMSO) alone. Compounds were evaluated in an 11 point dose-response ranging from […] to 0.34 nM. IC50 values of compounds are determined using a 4 parameter logistical fit of emission ratio as a function of the concentration of compound.

In assay [4] the test system is JAK1/3 phosphorylation of its substrate, STAT5, at Y694. Nature of the assay: JAK1/3 target modulation assay (IL-2 stimulated STAT5 Y694 phosphorylation in PBMC). It counts as cell-based. As to conditions: Primary human peripheral blood mononuclear cells, IL-2 25 ng/mL, read-out: IL2-STAT5 Inh. IC50. As for the experimental part:
Target modulation was based upon the ability of a compound to inhibit JAK1/3 phosphorylation of its substrate, STAT5, at Y694. Primary human peripheral blood mononuclear cells were plated in V-bottom 96 well plates at 200,000 cells/well in 120 μL medium (RPMI-1640 with 10% fetal bovine serum, 10 mM HEPES buffer, 12.2 mM 2-mercaptoethanol, and supplemented with glutamine/penicillin/streptomycin). Compounds were added as 15 μL of 10× working stock solutions in medium with 1% DMSO (or medium with 1% DMSO for controls) and placed in a 37° C. incubator with gentle shaking for 1 hour. Stimulation was carried out using recombinant human IL-2 (R&D Systems #202-IL-050) to activate JAK1/3. IL-2 stock solution was diluted in media to 250 ng/mL and was added rapidly to all compound containing and stimulation only wells at 15 μL/well (final concentration=25 ng/mL). Wells designated ‘unstimulated’ received 15 μL of media only. The plate was placed back in a 37° C. incubator with gentle shaking for 5 minutes. After stimulation, the plates were immediately sealed with a plate seal, and cells pelleted at 400× g for 5 minutes. Media was removed using a multichannel aspirator, and 75 μL of cold Tris lysis buffer (MSD #R60TX-3) plus 1× Protease Inhibitor Solution (MSD #R70AA-1), 1× Phosphatase Inhibitor I (MSD #R70AA-1), and 1× Phosphatase Inhibitor II (MSD #R70AA-1) was added per well. Cells were incubated at 4° C. with gentle shaking for at least 30 minutes to allow for complete lysis. The plates were removed from 4° C., and 25 μL of lysate from each well was added to the corresponding well on the MSD plate. Samples were analyzed by either an MSD multiplex kit for Phospho-STAT5a,b/Total-STAT5a,b (MSD #K15163D) or an MSD single-plex kit for Phospho-STAT5a,b (MSD #K150IGD). The protocols for the respective kits were followed, and the plates were read on the MSD SECTOR S 600.

Structures are written as SMILES. Where two headings read alike, the source gives them in different places.

ITK, sequence (Q08881 whole entry): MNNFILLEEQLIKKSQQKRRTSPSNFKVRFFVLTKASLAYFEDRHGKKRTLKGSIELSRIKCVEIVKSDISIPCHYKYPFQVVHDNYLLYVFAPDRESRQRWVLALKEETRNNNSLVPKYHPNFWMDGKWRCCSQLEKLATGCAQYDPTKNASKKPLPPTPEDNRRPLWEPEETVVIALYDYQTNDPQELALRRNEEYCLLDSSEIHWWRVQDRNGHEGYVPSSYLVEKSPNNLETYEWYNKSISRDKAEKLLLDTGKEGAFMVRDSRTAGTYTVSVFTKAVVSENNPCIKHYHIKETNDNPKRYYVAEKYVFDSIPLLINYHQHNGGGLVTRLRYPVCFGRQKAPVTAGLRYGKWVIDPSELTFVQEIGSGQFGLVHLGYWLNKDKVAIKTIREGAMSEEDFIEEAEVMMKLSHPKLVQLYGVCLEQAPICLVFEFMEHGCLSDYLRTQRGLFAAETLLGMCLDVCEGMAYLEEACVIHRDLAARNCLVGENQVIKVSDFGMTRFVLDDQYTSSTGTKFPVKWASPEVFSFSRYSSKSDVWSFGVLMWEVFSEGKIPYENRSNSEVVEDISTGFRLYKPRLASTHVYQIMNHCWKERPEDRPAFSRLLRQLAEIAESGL
JAK3, sequence (P52333 781-1124): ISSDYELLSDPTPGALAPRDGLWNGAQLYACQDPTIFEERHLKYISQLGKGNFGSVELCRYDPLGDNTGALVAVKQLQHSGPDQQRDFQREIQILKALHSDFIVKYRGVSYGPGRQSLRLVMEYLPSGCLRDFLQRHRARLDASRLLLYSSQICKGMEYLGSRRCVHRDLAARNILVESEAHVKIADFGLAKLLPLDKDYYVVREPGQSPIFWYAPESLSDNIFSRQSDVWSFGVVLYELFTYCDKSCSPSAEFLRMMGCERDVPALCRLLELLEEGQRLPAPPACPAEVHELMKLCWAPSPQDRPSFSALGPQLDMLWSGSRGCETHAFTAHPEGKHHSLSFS

The IC50 is the midpoint of a concentration-inhibition curve. With `C=CC(=O)N1CCC(Nc2cnc3[nH]cc(C(=O)C4CCC4)c3n2)CC1` [Example 100, 1-(4-((7-(cyclobutanecarbonyl)-5H-pyrrolo[2,3-b]pyrazin-2-yl)amino)piperidin-1-yl)prop-2-en-1-one], the IC50 in assay [1] is 100 to 1000 nM; in assay [2] it was 10 to 100 nM; in assay [3] it was no more than 10 nM; in assay [4] (Homo sapiens, PBMC), no more than 100 nM.
For `C=CC(=O)N1C[C@H](Nc2ncnc3[nH]cc(C4CC4(F)F)c23)CC[C@@H]1C` (mixture of isomers) [Example 47, 1-((2S,5R)-5-((5-(2,2-difluorocyclopropyl)-7H-pyrrolo[2,3-d]pyrimidin-4-yl)amino)-2-methylpiperidin-1-yl)prop-2-en-1-one], in that order: no more than 100 nM, no more than 10 nM, no more than 10 nM and no more than 100 nM.
On to `C=CC(=O)N1CCC[C@@H](Nc2ncnc3[nH]cc([C@H]4C[C@@H]4COC)c23)C1` (single isomer, unassigned) [Example 25], for which the IC50 in assay [1] was 100 to 1000 nM; in assay [2] it was no more than 10 nM; in assay [3] it was 10 to 100 nM; in assay [4] it was greater than 1000 nM.
As for `C=CC(=O)N1CCC[C@@H](Nc2ccnc3[nH]cc(C(=O)C4(C)CC4)c23)C1` [Example 14, (R)-1-(3-((3-(1-methylcyclopropane-1-carbonyl)-1H-pyrrolo[2,3-b]pyridin-4-yl)amino)piperidin-1-yl)prop-2-en-1-one], the IC50 was 100 to 1000 nM in assay [1]; no more than 10 nM in assay [2]; no more than 10 nM in assay [3]; 100 to 1000 nM in assay [4] (Homo sapiens, PBMC).
With `C=CC(=O)N1CC[C@@H](Nc2ccnc3[nH]cc(C(=O)C4CC4)c23)C1` [Example 15, (R)-1-(3-((3-(cyclopropanecarbonyl)-1H-pyrrolo[2,3-b]pyridin-4-yl)amino)pyrrolidin-1-yl)prop-2-en-1-one], the IC50 in assay [1] is 100 to 1000 nM; in assay [2], no more than 10 nM; in assay [3], 10 to 100 nM; in assay [4] (Homo sapiens, PBMC), greater than 1000 nM.
For `C=CC(=O)N1CCC[C@@H](Nc2ncnc3[nH]cc(C4CC4(F)F)c23)C1` (stereo partly drawn) [Example 27, 1-((3R)-3-((5-(2,2-difluorocyclopropyl)-7H-pyrrolo[2,3-d]pyrimidin-4-yl)amino)piperidin-1-yl)prop-2-en-1-one], in that order: no more than 100 nM, no more than 10 nM, no more than 10 nM and 100 to 1000 nM.
For `C=CC(=O)N1CC(Nc2ncnc3[nH]cc(CC4CC4)c23)CCC1C(C)C` (centres unmarked) [Example 41, 1-(5-((5-(cyclopropylmethyl)-7H-pyrrolo[2,3-d]pyrimidin-4-yl)amino)-2-isopropylpiperidin-1-yl)prop-2-en-1-one], in that order: 100 to 1000 nM, 10 to 100 nM, 10 to 100 nM and greater than 1000 nM.
Taken in the same sequence, the figures for `C=CC(=O)N1C[C@H](Nc2ncnc3[nH]cc(C(=O)OCC(C)C)c23)CC[C@@H]1C` [Example 16, isobutyl 4-(((3R,6S)-1-acryloyl-6-methylpiperidin-3-yl)amino)-7H-pyrrolo[2,3-d]pyrimidine-5-carboxylate] were greater than 1000 nM, 10 to 100 nM, no more than 10 nM and 100 to 1000 nM.
Take `C=CC(=O)N1C[C@@H](Nc2ncnc3[nH]cc(CC4CC4)c23)CC[C@H]1CC` (single isomer, unassigned) [Example 39]: the IC50 in assay [1] was 100 to 1000 nM; in assay [2], no more than 10 nM; in assay [3], no more than 10 nM; in assay [4] (Homo sapiens, PBMC), 100 to 1000 nM.
As for `C=CC(=O)N1C[C@H](Nc2ncnc3[nH]cc(CC4CCC(CC)C4)c23)CC[C@@H]1C` (mixture of isomers) [Example 36, 1-((2S,5R)-5-((5-((3-ethylcyclopentyl)methyl)-7H-pyrrolo[2,3-d]pyrimidin-4-yl)amino)-2-methylpiperidin-1-yl)prop-2-en-1-one], the IC50 in assay [1] is 100 to 1000 nM; in assay [2], no more than 10 nM; in assay [3] it was no more than 10 nM; in assay [4] (Homo sapiens, PBMC), 100 to 1000 nM.
On to `C=C(C)C(=O)N1C[C@H](Nc2ncnc3[nH]cc([C@H]4CC4(F)F)c23)CC[C@@H]1C` (single isomer, unassigned) [Example 62], for which the IC50 in assay [1] is 100 to 1000 nM; in assay [2], greater than 100 nM; in assay [3], greater than 100 nM; in assay [4] (Homo sapiens, PBMC), greater than 1000 nM.
